Results on eight molecules are retold here after paper PMC3754837 (Neuropharmacology, 2013).

Molecules are shown by their SMILES.

Assay [1] concerns the target T1, m5-HT2C (C57Bl/6 mouse 5-HT2C-VNV receptor) (Mus musculus, UniProt P34968, I157V/I161V).
T1 sequence (P34968 33-459 I157V/I161V): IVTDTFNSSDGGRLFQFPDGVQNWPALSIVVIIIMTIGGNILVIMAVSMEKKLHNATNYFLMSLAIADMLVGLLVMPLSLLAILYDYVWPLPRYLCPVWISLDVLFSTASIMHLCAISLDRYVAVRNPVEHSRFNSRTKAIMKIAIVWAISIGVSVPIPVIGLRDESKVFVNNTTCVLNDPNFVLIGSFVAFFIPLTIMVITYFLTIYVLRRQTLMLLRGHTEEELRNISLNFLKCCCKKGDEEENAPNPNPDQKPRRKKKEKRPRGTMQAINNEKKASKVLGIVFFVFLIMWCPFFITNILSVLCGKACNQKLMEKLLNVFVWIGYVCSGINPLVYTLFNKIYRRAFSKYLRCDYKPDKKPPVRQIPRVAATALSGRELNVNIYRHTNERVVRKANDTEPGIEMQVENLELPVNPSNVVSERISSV
Briefly: [3H]-inositol phosphate accumulation. Format: cell-based.

In assay [2] the target is T1, m5-HT2C (C57Bl/6 mouse 5-HT2C-VNV receptor). Briefly: [3H]-mesulergine competition, HEK-293 membranes. Format: binding.
In assay [3] the target is T2, h5-HT2A (human 5-HT2A receptor) (Homo sapiens, UniProt P28223). As to the kind of experiment: [3H]-ketanserin competition, HEK-293 membranes. In kind it is binding.
T2 sequence (P28223 whole entry): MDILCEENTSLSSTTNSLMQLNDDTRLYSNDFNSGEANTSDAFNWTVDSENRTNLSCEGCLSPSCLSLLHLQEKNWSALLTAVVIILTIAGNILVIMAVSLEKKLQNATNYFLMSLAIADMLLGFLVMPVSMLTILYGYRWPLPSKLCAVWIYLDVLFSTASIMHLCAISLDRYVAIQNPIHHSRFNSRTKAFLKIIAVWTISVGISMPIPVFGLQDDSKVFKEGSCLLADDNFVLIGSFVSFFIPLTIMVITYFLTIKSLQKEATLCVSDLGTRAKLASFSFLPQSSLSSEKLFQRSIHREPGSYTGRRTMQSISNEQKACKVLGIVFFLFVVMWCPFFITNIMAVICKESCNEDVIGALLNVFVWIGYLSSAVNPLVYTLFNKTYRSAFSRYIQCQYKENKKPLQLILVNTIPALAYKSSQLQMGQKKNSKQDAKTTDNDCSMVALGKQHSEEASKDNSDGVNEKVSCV
The target of assay [4] is T3, m5-HT2A (C57Bl/6 mouse 5-HT2A receptor) (Mus musculus, UniProt P35363). Briefly: [3H]-ketanserin competition, HEK-293 membranes. In kind it is binding.
T3 sequence (P35363 whole entry): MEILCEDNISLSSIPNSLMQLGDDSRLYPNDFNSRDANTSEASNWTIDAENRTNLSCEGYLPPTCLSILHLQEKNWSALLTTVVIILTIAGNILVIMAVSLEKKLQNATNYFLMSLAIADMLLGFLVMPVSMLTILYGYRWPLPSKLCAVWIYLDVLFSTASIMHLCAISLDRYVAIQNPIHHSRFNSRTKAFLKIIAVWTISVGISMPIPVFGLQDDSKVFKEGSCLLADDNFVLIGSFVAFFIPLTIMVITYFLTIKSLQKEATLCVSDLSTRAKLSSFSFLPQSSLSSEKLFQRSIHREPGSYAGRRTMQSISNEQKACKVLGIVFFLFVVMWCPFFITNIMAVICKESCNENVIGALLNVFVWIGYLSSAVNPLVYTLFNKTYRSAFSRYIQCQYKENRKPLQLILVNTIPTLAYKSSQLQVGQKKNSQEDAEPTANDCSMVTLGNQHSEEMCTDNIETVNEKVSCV
Assay [5] addresses T2, h5-HT2A (human 5-HT2A receptor). As to the kind of experiment: [3H]-inositol phosphate accumulation. In kind it is cell-based.
In assay [6] the target is T3, m5-HT2A (C57Bl/6 mouse 5-HT2A receptor). Briefly: [3H]-inositol phosphate accumulation. Format: cell-based.
Assay [7] deals with T1, m5-HT2C (C57Bl/6 mouse 5-HT2C-VNV receptor). Briefly: saturation radioligand binding, HEK-293 membranes.
The target of assay [8] is T3, m5-HT2A (C57Bl/6 mouse 5-HT2A receptor). As to the kind of experiment: saturation radioligand binding, HEK-293 membranes.
For assay [9], the target named is T4, h5-HT2C (human 5-HT2C-INI receptor) (Homo sapiens, UniProt P28335).
T4 sequence (P28335 33-458): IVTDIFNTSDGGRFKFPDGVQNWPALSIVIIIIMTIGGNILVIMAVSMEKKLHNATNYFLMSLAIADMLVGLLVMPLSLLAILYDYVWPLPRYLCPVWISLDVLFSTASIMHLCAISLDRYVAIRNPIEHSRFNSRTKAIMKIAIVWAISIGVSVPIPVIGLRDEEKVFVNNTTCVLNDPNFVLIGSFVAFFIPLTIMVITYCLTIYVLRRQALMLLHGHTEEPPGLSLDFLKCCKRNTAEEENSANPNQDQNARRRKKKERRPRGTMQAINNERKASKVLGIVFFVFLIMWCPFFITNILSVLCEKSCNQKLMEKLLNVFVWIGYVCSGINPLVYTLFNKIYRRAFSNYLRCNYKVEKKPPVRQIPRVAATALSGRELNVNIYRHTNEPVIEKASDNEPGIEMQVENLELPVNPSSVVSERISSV
As to the kind of experiment: biochemical. In kind it is binding.

The target of assay [10] is T4, h5-HT2C (human 5-HT2C-INI receptor). As to the kind of experiment: [3H]-inositol phosphate accumulation. Format: cell-based.

The molecule `CN(C)[C@@H]1Cc2ccccc2[C@@H](c2ccccc2)C1` [(−)-PAT] yielded an EC50 in assay [1] of 39 nM. For the same molecule, the figures for the Ki in [2], in [3] and in [4] were 53 nM, 102 nM and 116 nM, respectively.

As for `Cn1ccc2cc3c(cc21)CCN3C(=O)Nc1cccnc1` [SB-206553], the Ki in assay [3] amounted to 676 nM; in [4], 342 nM.

Turning to `CN(C)[C@H]1Cc2ccccc2[C@H](c2ccccc2)C1` [(+)-PAT], the results for the EC50 in assay [1], in assay [5] and in [6] were 2110 nM, 233 nM and 352 nM, respectively. Besides, the Ki in [2] was 1730 nM; in assay [3] it was 463 nM; in assay [4], 332 nM.

Take `CN1C[C@@H](NS(=O)(=O)N(C)C)C[C@@H]2c3cccc4c3c(cn4C)C[C@H]21` [[^3H]-mesulergine]: the Kd in [7] amounted to 2.2 nM.

In [8], `O=C(c1ccc(F)cc1)C1CCN(CCn2c(=O)[nH]c3ccccc3c2=O)CC1` [[^3H]-ketanserin] displayed a Kd of 0.92 nM.

As to `Cc1cc2c(cc1Cl)N(C(=O)Nc1ccc(Oc3cccnc3C)nc1)CC2` [SB-242084], the Ki in assay [2] came to 0.1 nM; in assay [3] it was 146 nM; in [4], 96 nM; in assay [9], 1.5 nM.

With `COc1cc(CC(C)N)c(OC)cc1I` (racemic) [(±)-DOI], the half-maximal effective concentration (EC50) stood at 3.4 nM in [1], 5.5 nM in [10] and 2.6 nM in [6]. The inhibition constant (Ki) is 46.7 nM in assay [2], 4 nM in [4] and 19.1 nM in assay [9].

As to `Cc1ccc([C@H]2C[C@H](N(C)C)Cc3ccccc32)cc1` [Methyl-PAT, (−)-(2S, 4R)-trans-4-(4′-methyl)-N,N-dimethylaminotetralin], the EC50 in assay [1] amounted to 808 nM; in [10], 1120 nM. For the same molecule, the inhibitory constant (Ki) in assay [2] came to 868 nM; in [3] it was 179 nM; in [4] it was 326 nM; in assay [9], 128 nM.

One may read the EC50 as the concentration giving half of the maximal effect. Read a low EC50 as greater potency. As usually defined, the Ki is a dissociation constant, usually derived from enzyme kinetics or from competition with a known ligand. Broadly, the Kd is the equilibrium constant for the complex coming apart. High values mean weaker binding, low ones tighter binding.
